Laboratory results: patent US20120316078A1, “METHODS AND MATERIALS FOR PRODUCING POLYPEPTIDES IN VITRO” (priority 2011, published 2012)

molecular target: GFP (Aequorea victoria, UniProt P42212); conditions: array of randomly generated peptides; GFP binding assay
Source text: Peptide aptamers also can be selected using a peptide array containing randomly generated peptides (e.g., 10,000 randomly generated peptides) that are 10 to 35 amino acids (e.g., 15 to 25 or 20 amino acids) in length. The peptide array can be screened using a binding assay with the protein target (e.g., GFP or thioredoxin). For example, when a fluorescent protein such as GFP is the target, GFP-binding peptides can be directly identified through a fluorescent scanner after a GFP binding assay.

Sequence | binding to GFP on peptide array (strong fluorescence spots)
CSGPYGTHFMYKSGGWRAIY [SEQ ID NO:4] | bind specifically to the GFP
CSGWNHVIYEGTRYNWFRDS [SEQ ID NO:3] | bind specifically to the GFP
CSGFRAMWLYRNWESQVEAT [SEQ ID NO:2] | bind specifically to the GFP
